Data: ChEMBL document CHEMBL1201862, “PubChem BioAssay data set” (2004)
Active and inactive are the calls of the source.

Key:
[1] = inhibition of ARNT PAS-B/TACC3 complex formation – biochemical, AlphaScreen, cherry-picked samples, confirmation (AID 651703); format: functional, Homo sapiens;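 also: His-tagged ARNT PAS-B domain paired with GST-TACC3 E629A dimer coactivator fragment; potency of inhibitors that break up the complex and lower AlphaScreen signal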
[2] = NIH-3T3 fibroblast cytotoxicity, dose response, cytotoxicity control, cell-based, fluorescence, Alamar Blue, secondary assay (AID 2327); format: functional;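 also: NIH-3T3 mouse fibroblasts cultured with fluconazole at 8 µg/mL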
[3] = fluconazole-exposed Candida albicans growth modulators – fluorescence, retest, confirmation (AID 2467); format: functional, cell-based
[4] = target: Protein Wnt-3a (Mus musculus, UniProt P27467); test: antagonism of Wnt3a pathway luciferase reporter – Wnt-LIGHT cells, luminescence, selectivity assay for Gli-SUFU antagonist project, dose response (AID 651570); format: functional; conditions: read-out: IC50_Mean;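 also: Wnt-LIGHT reporter cells stimulated with conditioned medium from Wnt3a-producing cells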
Sequence of Protein Wnt-3a (P27467 whole entry): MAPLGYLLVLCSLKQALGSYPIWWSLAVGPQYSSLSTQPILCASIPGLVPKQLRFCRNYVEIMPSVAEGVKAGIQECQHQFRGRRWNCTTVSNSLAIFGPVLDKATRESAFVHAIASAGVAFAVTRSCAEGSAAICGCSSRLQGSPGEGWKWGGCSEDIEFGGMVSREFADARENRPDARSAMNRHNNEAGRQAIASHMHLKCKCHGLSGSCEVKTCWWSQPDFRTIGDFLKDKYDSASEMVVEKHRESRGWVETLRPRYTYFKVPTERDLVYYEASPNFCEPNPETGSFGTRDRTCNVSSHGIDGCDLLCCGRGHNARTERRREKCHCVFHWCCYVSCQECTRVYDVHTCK

[5] = target: T1, COUP transcription factor 2 (Homo sapiens, UniProt P24468); test: Luminescence-based cell-based high throughput dose response assay to identify inhibitors of COUP-TFII (NR2F2).; format: functional;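 also: HEK293 cells transiently cotransfected with COUP-TFII expression vector and reporter; luciferase reporter luminescence driven by COUP-TFII from the pX2-168 reporter plasmid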
T1 sequence (P24468 whole entry): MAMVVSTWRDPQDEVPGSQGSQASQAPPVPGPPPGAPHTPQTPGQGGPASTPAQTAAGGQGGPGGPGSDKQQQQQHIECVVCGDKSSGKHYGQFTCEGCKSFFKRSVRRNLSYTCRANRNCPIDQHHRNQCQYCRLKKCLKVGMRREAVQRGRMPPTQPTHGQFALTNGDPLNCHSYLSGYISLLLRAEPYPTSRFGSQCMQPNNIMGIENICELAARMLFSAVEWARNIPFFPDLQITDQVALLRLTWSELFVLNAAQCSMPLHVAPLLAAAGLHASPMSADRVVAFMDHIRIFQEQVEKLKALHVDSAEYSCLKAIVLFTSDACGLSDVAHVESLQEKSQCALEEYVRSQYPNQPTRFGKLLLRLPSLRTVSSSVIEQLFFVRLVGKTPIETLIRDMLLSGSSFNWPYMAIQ

[6] = target: Mitochondrial peptide methionine sulfoxide reductase (Bos taurus, UniProt P54149); format: functional;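 also: absorbance read-out, biochemical high-throughput dose-response screen for MsrA inhibitors, confirmatory; recombinant bovine MsrA coupled to E. coli TrxB with NADPH and selenocystamine; potency is for inhibitors of MsrA activity on DMSO substrate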
[7] = target: Nuclear receptor subfamily 5 group A member 2 (Homo sapiens, UniProt O00482); format: functional, cell-based;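 also: HEK293T cells transfected with LRH-1 and a StAR promoter luciferase reporter; potency for inhibitors that lower LRH-1 driven reporter light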
Sequence of Nuclear receptor subfamily 5 group A member 2 (O00482 whole entry): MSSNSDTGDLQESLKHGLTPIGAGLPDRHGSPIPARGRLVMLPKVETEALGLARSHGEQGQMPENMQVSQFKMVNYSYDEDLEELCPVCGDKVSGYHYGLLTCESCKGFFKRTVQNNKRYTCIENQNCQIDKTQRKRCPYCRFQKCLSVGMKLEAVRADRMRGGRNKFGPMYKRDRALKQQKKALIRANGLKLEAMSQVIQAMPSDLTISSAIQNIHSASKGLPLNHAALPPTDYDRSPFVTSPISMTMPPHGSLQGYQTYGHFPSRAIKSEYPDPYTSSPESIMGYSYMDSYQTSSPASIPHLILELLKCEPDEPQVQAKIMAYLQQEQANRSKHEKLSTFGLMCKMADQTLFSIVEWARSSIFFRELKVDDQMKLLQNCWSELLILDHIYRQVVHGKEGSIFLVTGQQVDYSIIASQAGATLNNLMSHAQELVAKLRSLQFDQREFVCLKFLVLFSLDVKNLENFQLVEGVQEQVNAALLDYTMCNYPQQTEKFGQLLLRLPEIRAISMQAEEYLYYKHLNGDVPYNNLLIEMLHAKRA

[8] = target: Steroidogenic factor 1 (Homo sapiens, UniProt Q13285); test: Counterscreen for inverse agonists of the liver receptor homolog-1 (LRH-1; NR5A2): Luminescence-based cell-based high throughput dose response assay to identify inverse agonists of the Steroidogenic Factor 1 Nuclear Receptor (SF1; NR5A1).; format: functional
[9] = nonselective StAR promoter luciferase inhibitors – cell-based, luminescence, luciferase reporter, counter-screen for LRH-1 inverse agonist project, dose response (AID 651969); format: functional
[10] = target: Low molecular weight phosphotyrosine protein phosphatase (Homo sapiens, UniProt P24666); format: functional; conditions: read-out: IC50_Mean;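 also: Dose-response confirmation assay measuring inhibition of LMPTP enzyme activity by fluorescence intensity read-out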
Sequence of Low molecular weight phosphotyrosine protein phosphatase (P24666 whole entry): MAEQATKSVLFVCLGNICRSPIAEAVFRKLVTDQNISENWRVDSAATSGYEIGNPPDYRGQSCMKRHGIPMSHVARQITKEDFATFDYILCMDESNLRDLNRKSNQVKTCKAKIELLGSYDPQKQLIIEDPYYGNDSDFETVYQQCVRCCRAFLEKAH

[11] = target: T2, Caspase-6 (Homo sapiens, UniProt P55212); test: inhibition of CASP6 peptide cleavage – biochemical, VEID-R110 fluorescence, cherry-pick, dose response (AID 720632)
T2 sequence (P55212 whole entry): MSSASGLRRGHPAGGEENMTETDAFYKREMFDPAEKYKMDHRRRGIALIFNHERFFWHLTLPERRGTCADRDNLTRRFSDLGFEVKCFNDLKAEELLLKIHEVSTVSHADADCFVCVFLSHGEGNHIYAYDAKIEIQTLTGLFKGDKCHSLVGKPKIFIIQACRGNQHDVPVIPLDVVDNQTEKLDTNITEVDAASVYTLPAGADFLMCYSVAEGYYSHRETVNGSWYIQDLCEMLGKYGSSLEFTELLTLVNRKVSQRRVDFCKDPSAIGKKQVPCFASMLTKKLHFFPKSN

[12] = target: Caspase-7 (Homo sapiens, UniProt P55210); test: caspase-7 enzyme inhibition, selectivity check – biochemical, DEVD-R110 fluorescence, cherry-pick, selectivity assay for caspase-6 inhibitor project, dose response (AID 743295); format: functional
Sequence of Caspase-7 (P55210 24-198 limits assumed): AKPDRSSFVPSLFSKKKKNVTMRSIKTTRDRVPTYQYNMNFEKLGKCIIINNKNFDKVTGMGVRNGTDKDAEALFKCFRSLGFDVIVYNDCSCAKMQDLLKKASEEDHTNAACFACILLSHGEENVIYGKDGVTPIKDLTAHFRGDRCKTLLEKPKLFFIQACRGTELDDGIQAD
Sequence of Caspase-7 (P55210 207-303 limits assumed): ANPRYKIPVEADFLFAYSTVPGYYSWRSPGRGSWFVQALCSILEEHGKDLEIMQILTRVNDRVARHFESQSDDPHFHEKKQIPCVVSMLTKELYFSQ

[13] = target: Beta-lactamase (Salmonella choleraesuis (strain SC-B67), UniProt Q5J463); test: Epi-absorbance-based counterscreen for selective VIM-2 inhibitors: dose response biochemical high throughput screening assay to identify inhibitors of TEM-1 serine-beta-lactamase.
Sequence of Beta-lactamase (Salmonella choleraesuis (strain SC-B67), UniProt Q5J463) (Q5J463 whole entry): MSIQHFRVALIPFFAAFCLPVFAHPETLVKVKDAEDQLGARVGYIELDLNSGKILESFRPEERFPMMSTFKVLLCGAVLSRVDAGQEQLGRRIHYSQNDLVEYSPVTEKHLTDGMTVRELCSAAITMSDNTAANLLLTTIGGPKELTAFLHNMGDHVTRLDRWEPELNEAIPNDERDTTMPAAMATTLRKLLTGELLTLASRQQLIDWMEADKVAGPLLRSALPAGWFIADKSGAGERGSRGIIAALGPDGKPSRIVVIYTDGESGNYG

[14] = target: T3, Beta-lactamase (Pseudomonas aeruginosa, UniProt Q79MP6); test: inhibition of IMP-1 beta-lactamase activity – biochemical, epi-absorbance, selectivity assay for VIM-2 inhibitor project, dose response (AID 1920)
T3 sequence (Q79MP6 whole entry): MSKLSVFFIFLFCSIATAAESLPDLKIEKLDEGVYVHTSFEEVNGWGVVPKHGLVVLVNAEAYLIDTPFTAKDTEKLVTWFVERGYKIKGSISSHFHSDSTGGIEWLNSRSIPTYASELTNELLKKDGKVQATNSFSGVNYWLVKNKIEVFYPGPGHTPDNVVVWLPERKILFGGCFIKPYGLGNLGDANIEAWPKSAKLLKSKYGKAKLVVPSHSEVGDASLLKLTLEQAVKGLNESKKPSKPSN

[15] = target: T3, Beta-lactamase; test: […] counterscreen for selective VIM-2 inhibitors: dose response biochemical high throughput screening assay to identify inhibitors of IMP-1 metallo-beta-lactamase.
[16] = target: DNA (cytosine-5)-methyltransferase 1 (Homo sapiens, UniProt P26358); test: inhibition of DNA methylation by DNMT1 – biochemical, fluorescent molecular beacon, confirmation (AID 602386); format: functional
Sequence of DNA (cytosine-5)-methyltransferase 1 (P26358 whole entry): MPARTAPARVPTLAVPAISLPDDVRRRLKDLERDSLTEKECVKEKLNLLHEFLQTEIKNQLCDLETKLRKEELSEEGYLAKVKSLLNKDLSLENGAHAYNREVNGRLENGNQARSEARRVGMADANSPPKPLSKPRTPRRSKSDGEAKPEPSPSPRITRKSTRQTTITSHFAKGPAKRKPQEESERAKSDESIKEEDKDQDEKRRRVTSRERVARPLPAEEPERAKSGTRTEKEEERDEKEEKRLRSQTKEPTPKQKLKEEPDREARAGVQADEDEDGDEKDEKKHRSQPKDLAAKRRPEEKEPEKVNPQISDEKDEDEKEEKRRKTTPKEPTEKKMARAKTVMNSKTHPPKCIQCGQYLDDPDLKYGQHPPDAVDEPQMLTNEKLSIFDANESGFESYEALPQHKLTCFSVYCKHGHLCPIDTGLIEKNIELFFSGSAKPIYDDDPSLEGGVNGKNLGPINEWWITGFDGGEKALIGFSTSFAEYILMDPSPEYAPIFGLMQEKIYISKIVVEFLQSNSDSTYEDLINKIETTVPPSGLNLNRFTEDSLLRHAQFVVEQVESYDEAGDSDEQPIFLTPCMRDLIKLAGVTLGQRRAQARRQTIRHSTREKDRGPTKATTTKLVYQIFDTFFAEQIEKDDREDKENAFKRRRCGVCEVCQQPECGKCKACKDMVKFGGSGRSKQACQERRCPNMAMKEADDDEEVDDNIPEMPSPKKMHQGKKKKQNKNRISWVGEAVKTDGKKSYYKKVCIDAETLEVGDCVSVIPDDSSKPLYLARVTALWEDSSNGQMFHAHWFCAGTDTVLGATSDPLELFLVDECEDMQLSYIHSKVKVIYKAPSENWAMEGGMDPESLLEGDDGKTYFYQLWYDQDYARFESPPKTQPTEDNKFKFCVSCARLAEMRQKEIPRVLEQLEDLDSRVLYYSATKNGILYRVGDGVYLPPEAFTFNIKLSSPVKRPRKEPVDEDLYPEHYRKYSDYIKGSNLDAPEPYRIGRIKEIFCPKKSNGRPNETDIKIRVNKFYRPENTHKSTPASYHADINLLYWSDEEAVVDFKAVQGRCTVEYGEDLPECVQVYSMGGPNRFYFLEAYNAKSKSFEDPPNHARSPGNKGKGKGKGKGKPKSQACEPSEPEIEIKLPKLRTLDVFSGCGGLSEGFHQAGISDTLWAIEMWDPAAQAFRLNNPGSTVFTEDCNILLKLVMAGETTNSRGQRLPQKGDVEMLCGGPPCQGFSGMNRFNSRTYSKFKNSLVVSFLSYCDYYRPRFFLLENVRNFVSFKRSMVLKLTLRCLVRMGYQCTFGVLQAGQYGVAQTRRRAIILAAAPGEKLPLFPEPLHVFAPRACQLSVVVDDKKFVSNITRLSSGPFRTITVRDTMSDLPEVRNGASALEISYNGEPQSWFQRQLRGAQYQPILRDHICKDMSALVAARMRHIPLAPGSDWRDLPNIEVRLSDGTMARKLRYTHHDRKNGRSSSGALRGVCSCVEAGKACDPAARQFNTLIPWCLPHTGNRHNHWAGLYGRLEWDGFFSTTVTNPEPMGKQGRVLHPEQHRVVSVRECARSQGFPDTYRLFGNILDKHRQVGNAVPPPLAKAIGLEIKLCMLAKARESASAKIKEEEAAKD

[17] = target: Tyrosine-protein phosphatase non-receptor type 11 (Homo sapiens, UniProt Q06124); test: PTPN11 enzyme inhibitors – biochemical, selectivity assay for STEP inhibitor project, dose response (AID 602367); format: functional; conditions: read-out: IC50_Mean
Sequence of Tyrosine-protein phosphatase non-receptor type 11 (Q06124 whole entry): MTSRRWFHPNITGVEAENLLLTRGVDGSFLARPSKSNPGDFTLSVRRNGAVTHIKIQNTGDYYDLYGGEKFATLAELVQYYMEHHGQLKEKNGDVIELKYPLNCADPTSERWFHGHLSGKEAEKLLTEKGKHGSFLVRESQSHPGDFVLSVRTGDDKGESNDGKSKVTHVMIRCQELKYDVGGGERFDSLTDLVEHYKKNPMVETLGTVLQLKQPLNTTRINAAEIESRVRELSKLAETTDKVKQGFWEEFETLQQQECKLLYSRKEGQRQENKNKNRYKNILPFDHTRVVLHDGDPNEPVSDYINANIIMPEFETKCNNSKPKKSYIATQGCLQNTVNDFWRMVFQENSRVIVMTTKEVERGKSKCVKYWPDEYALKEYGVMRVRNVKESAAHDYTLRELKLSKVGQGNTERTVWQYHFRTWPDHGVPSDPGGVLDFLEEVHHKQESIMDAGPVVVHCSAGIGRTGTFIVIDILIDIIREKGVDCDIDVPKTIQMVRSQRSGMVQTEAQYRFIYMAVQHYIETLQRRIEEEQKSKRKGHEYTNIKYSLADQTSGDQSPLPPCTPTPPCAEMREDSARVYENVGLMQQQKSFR

[18] = target: Tyrosine-protein phosphatase non-receptor type 5 (Homo sapiens, UniProt P54829); test: PTPN5 enzyme inhibition – biochemical, fluorescence intensity, uHTS hits, confirmation (AID 602372); format: functional; conditions: read-out: IC50_Mean
[19] = target: Dual specificity protein phosphatase 3 (Homo sapiens, UniProt P51452); test: VHR phosphatase inhibition, dose response, selectivity assay for STEP inhibitor project, biochemical (AID 602374); format: functional; conditions: read-out: IC50_Mean
Sequence of Dual specificity protein phosphatase 3 (P51452 whole entry): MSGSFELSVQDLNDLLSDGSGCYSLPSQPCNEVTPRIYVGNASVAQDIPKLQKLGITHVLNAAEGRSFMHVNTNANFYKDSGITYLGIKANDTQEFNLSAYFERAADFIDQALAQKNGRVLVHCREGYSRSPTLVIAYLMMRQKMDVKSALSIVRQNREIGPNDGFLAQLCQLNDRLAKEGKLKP

[20] = target: T4, Small ubiquitin-related modifier 1 (Homo sapiens, UniProt P63165); test: SUMO1 protein interaction blockers, potency – biochemical, fluorescence polarization, uHTS hits, dose response (AID 624382); format: functional; conditions: read-out: IC50_Mean
T4 sequence (P63165 whole entry): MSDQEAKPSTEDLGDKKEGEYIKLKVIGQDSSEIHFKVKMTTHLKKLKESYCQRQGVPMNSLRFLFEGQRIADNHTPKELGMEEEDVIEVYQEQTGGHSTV

[21] = target: T4, Small ubiquitin-related modifier 1; test: SUMO1 protein-protein binding blockers, potency – biochemical, FRET, dose response (AID 624383); format: functional; conditions: read-out: IC50_Mean
[22] = target: Albumin (Bos taurus, UniProt P02769); test: Counterscreen for inhibitors of T-cell receptor (TCR)-CD3 interaction: Fluorescence-based biochemical high throughput dose response assay to identify inhibitors of T-cell receptor (TCR)-CD3 interaction using a TAMRA-labeled BSA probe.; format: functional
Sequence of Albumin (P02769 whole entry): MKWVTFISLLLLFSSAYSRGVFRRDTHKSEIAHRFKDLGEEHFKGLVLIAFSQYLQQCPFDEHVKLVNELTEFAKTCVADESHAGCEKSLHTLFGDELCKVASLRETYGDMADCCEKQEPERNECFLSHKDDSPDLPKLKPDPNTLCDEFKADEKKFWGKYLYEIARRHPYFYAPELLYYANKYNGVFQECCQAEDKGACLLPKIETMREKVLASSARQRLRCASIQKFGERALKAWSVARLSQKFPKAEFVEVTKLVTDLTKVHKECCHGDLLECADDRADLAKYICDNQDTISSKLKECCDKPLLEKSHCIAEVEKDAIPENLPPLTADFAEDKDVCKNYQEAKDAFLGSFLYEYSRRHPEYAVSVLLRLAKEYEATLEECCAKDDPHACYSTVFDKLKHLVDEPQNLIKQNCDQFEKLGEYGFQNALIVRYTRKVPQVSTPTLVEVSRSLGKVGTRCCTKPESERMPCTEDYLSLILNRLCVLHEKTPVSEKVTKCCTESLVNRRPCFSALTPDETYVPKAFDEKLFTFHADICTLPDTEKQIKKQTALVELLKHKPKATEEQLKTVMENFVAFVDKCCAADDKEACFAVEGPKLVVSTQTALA

[23] = Trypanosoma cruzi growth suppression in host cells – NIH3T3 host cells, beta-gal luminescence, confirmation (AID 2044); format: functional, cell-based;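 also: intracellular parasites grown in NIH/3T3 mouse fibroblasts as host cells; luminescent beta-galactosidase reporter signal from transgenic T. cruzi replicating inside host cells; inhibitors lower the luminescence signal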
[24] = NIH3T3 cell viability loss – ATP luminescence, mouse fibroblasts, counter-screen, dose response (AID 2010); format: functional, cell-based;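 also: cells exposed to compound for about 90 hours before reading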
[25] = tested on: Cryptococcus neoformans; test: PubChem AID 686997; format: functional, organism-based
[26] = tested on: HeLa; test: viability loss in HeLa cells – cell-based, ATP luminescence, cherry-pick samples, cytotoxicity control, dose response (AID 687004); format: functional; conditions: Homo sapiens
[27] = tested on: Cryptococcus neoformans; test: Cryptococcus growth inhibition by alamar blue – cell lysis, cherry-picks, replicate tests, mechanism study for C. neoformans antifungal project, dose response (AID 686999); format: functional, organism-based
[28] = tested on: A549; test: viability loss in A549 cells – cell-based, plate reader, cherry-pick samples, cytotoxicity control, dose response (AID 687028); format: functional; conditions: Homo sapiens

In the case of `Cc1cccc(NC(=O)C(C)N2CC=C(c3ccccc3)CC2)c1` (stereo not given), the AC50 [1] is reported as 88.4 µM (active).

With `Cc1nn(C)c(C)c1/C=C/C(=O)c1ccc(Cl)cc1Cl` the EC50 [2] was 84.9 µM (inconclusive), the EC50 [3] was 3.56 µM (active) and the IC50 [4] was 2.49 µM (active). For the same molecule, the IC50 [5] was 14.8 µM (inactive).

For `O=C(C(=O)c1ccc(O)c(O)c1)c1ccc(O)c(O)c1`, the IC50 [6] was 112 µM (inactive).

With `N=c1sccn1CC(=O)Nc1ccc(S(N)(=O)=O)cc1` the IC50 [7] was 2.32 µM (active), the IC50 [8] was 3.81 µM (active) and the IC50 [9] was 35.9 µM (inactive).

In the case of `CCCCNC(=O)c1nc(C2CCNCC2)oc1-c1cccc(C(F)(F)F)c1`, the IC50 [10] is reported as 39.9 µM (inactive), the AC50 [11] is reported as 1.6 µM (active) and the AC50 [12] is reported as > 70 µM (inactive).

In the case of `O=C(O)c1ccccc1C(=O)c1cccc2ccccc12`, the IC50 [13] is reported as > 59.6 µM (inactive), the IC50 [14] is reported as > 59.6 µM (inactive) and the IC50 [15] is reported as > 59.6 µM (inactive).

For `O=C(N/N=C/c1ccoc1)c1cc(O)cc(O)c1`, the IC50 [16] was 7.09 µM (active), the IC50 [17] was 0.952 µM (active) and the IC50 [18] was 33.9 µM (inactive). For the same molecule, the IC50 [19] was 1.55 µM (active), the IC50 [20] was > 66.6 µM (inactive) and the IC50 [21] was 12.4 µM (active). The IC50 [22] was > 94 µM (inactive).

With `NC(=S)N/N=C/c1ccc(-c2cc(Cl)ccc2Cl)o1` the EC50 [2] was 15.4 µM (active), the EC50 [3] was 4.47 µM (active) and the EC50 [23] was 0.627 µM (active). The EC50 [24] was > 60 µM (not active), the AC50 [25] was 12.2 µM (active) and the AC50 [26] was 17.6 µM (active). For the same molecule, the AC50 [27] was 18.1 µM (active).

For `Cc1ccc2ccc(C(Nc3ccccc3)c3ccccc3)c(O)c2n1` (stereo not given), the AC50 [28] was 17.9 µM (active).
